One compound from patent publication US12448393B2, “Use of novel compound, for preventing, improving or treating amyotrophic lateral sclerosis” (PRG S&TECH INC., priority 2019, dated 2025) can be followed below.

Assay [1] deals with SOD1. Kind of assay: Immunofluorescence staining of SOD1 aggregation and misfolded SOD1. The assay is classed as cell-based, human. Conditions: Table 1; IF staining of SOD1. How it is done: (§1) Cells on coverslip were washed with PBS, fixed with 4% PFA at room temperature for 30 minutes, and then infiltrated with 0.1% Triton X-100/PBS for 10 minutes. The cells were treated with blocking solution (anti-Human Antibody 1:500 dilution in PBS) for 1 hour, and then cells were reacted with anti-pan SOD1 (1:400 dilution), misfolded SOD1 (B8H10; 1:200 dilution in blocking solution) at 4° C. overnight. Finally, the cells were reacted with FITC and rhodamine-conjugated secondary antibody at 4° C. for 6 hours. Nuclei were stained with 4,6-diamidino-2-phenylindole (DAPI), and endoplasmic reticula (ERs) were stained with ER-Tracker Red dye for 10 minutes. The cells were washed 3 times with PBS, and then coverslips were mounted with mounting solution [H-5501; Vector Laboratories (Burlingame, CA, USA)] and analyzed by fluorescence microscopy (Zeiss).
(§2) GFP-SOD1 (WT, G85R, G93A), non-tagged SOD1 (WT, A4V, G37R, G85R, G93A) and tdTomato-TDP43 expression vectors were purchased from Addgene (Cambridge, MA, USA). Transfection was performed using Jet-PEI reagent (JetPEI; Polyplus transfection, New York, NY, USA) according to the manufacturer's protocol. Briefly, vectors were mixed with JetPEI reagent in 150 mM NaCl buffer, and then mixture was reacted for 15 minutes. The mixture was added to cells in serum-free medium and reacted for 4 hours. After reaction, the cells were replaced with a culture medium supplemented with 10% FBS.

Assay [2] addresses SOD1 (Homo sapiens, UniProt P00441). The assay is described as above. The format is cell-based. How it is done:
as §1, §2

The subject of assay [3] is WT-SOD1 and mutant SOD1-GST (A4V, G37R, G85R, G93A). Nature of the assay: ELISA compound screening for binding inhibitor between WT-SOD1 and mutant SOD1. Further details: species or system human. As for the experimental part: For compound screening, the present inventors applied an ELISA assay system. To select a binding inhibitor between WT-SOD1 and mutant SOD1, the present inventors used 0.5% paraformaldehyde (PFA) to fix WT-SOD1 recombinant protein on a 96-well plate. The plate was dried, washed with phosphate-buffered saline (PBS), and reacted with the compounds at a final concentration of 50 μM, and then mutant SOD1-GST (A4V, G37R, G85R, G93A) proteins were added. After 2 hours of reaction, the 96-well plate was washed with PBS and blocked with 3% skim milk to prevent non specific reaction. The plate was reacted with anti-GST antibody (diluted at 1:10,000) for 1 hour, and then reacted with anti-mouse IgG-HRP (diluted at 1:50,000) for 1 hour. After washing twice, the plate was reacted with a 3,3′,5,5′-tetramethylbenzidine (TMB) solution (Calbiochem) for 30 minutes and a stop solution (1N H2SO4) for 30 minutes. Finally, the present inventors analyzed values using an ELISA reader (450 nm absorbance). Negative control (−; red line) was reacted without mutant SOD1, and positive control (+; blue line) was reacted with mutant SOD1 without the compounds.
To prepare recombinant proteins, human SOD1 (WT, A4V, G37R, G85R, G93A) was added to EcoRI and HindIII sites of pGEX-TEV vector, an improved vector made by adding a TEV protease cleavage site to pGEX-4T1 (Invitrogen). The recombinant proteins were expressed as GST-fusion proteins in Escherichia coli (E. coli) strain BL21 (DE3). The proteins were purified by glutathione-affinity chromatography.
On the technique in general: In an ELISA, binding on a coated surface is turned into a signal by an enzyme label.

Assay [4] has as its system misfolded SOD1. Nature of the assay: Dot blot analysis of misfolded SOD1 in transfected cell lysates. The assay is classed as cell-based, human. The settings on record: lysates of cells transfected with WT- or mutant SOD1; FIG. 5D. How it is done: (§3) To detect misfolded SOD1 expression, cells transfected with SOD1 vector were treated with the compounds for 24 hours. After reaction, the cells were lysed with a lysis buffer without surfactant, and then cell lysate was fixed on a nitrocellulose membrane using a Bio-Dot SF Microfiltration apparatus (Bio-Rad Laboratories, Hercules, CA). In the case of peptide reaction, SOD1 recombinant proteins were reacted with the compounds for 1 hour, and then samples were loaded onto membrane. Each membrane was washed with TBS and blocked with 3% skim milk to prevent non specific reaction. After blocking, the membrane was reacted with the misfolded SOD1 or Actin antibody (1:8,000 in TBST including 1% skim milk) for 30 minutes, and then with a secondary antibody (goat anti-mouse IgG-horseradish peroxidase, 1:50,000 in 1% skim milk blocking buffer) for 30 minutes. Antibodies reacted to proteins were detected by ECL and X-ray film exposure. Actin was used as a loading control.

The target of assay [5] is misfolded SOD1 (Homo sapiens, UniProt P00441, G94A). The assay is described as above. The assay is classed as cell-based. The settings on record: G93A-transfected cell lysates; FIG. 5E. How it is done:
as §3

The test system of assay [6] is SOD1. Nature of the assay: Western blot / native gel analysis of SOD1 aggregation. The format is cell-based, human. Conditions: for mutant SOD1 aggregation: FIGS. 3B and 3C.

Entries after “also recorded” stand apart in the source; their conditions may differ.

SOD1 (Homo sapiens, UniProt P00441), sequence (P00441 2-154): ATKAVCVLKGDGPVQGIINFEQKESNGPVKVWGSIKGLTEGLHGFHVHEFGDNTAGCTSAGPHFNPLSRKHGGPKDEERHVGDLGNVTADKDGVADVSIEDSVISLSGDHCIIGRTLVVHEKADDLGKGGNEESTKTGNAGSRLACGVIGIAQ
misfolded SOD1 (Homo sapiens, UniProt P00441, G94A), sequence (P00441 2-154 G94A): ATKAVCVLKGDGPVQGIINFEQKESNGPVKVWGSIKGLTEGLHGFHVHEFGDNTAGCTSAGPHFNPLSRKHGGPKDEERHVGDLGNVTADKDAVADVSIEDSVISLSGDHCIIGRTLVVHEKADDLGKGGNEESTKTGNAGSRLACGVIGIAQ

As to `COc1cc(/C=C/C(=O)O[C@H]2Cc3cc4ccc(=O)oc4cc3OC2(C)C)ccc1O` [PRG-A-01, (S)-8,8-dimethyl-2-oxo-7,8-dihydro-2H,6H-pyrano[3,2-g]chromen-7-yl (E)-3-(4-hydroxy-3-methoxyphenyl) acrylate], the Immuno-fluorscence result in assay [1] is on record as “Effect ○”. For the same compound, the “misfolded SOD1 / SOD1 aggregation induced by hypoxic stress” value in assay [2] (CoCl2, FIG. 6C) is given as “blocks SOD1 aggregation induced by hypoxic stress; also recorded: reduced”. Moreover, in assay [2] (FIG. 5A), the “SOD1 aggregation induced by TDP-43 overexpression, immunofluorescence” value was “inhibited; also recorded: reduce the SOD1 aggregation as well as TDP-43”. Moreover, the ELISA entry in assay [3] (Table 1, compounds at final concentration of 50 μM) was “Effect ○”. Moreover, the “binding inhibition in ELISA compound screening” value in assay [3] (WT-SOD1 fixed on plate, GST-tagged mutant SOD1s, FIG. 3A) is recorded as “specific for mutation”. The “misfolded SOD1, dot blot” value in assay [4] is reported as “reduces misfolding formation of SOD1; also recorded: band intensity clearly decreased”. In addition, the “misfolded SOD1, dot blot, according to doses” value in assay [5] is listed as “dose-dependent decrease in misfolded SOD1”. Besides, the “mutant SOD1 aggregation” value in assay [6] is listed as “inhibits SOD1 aggregation”; in assay [6] (listed as SLC-B036), “blocking mutant SOD1 aggregation in a dose-dependent manner”. Further, the “Western Blot” value in assay [6] (Table 1, effect on SOD1 aggregation, native / non-SDS-PAGE gel) is “Effect ○”.
